In ChEMBL document CHEMBL1201862, “PubChem BioAssay data set” (2004):
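Compound exposure: 48 hours, 5 concentrations, 96-well plates. GI50 is the concentration that inhibits growth by half.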 Calls of active or inactive are those of the source. Cut-off read from the data, not from the text of the source: active = GI50 up to about 1.1 µM and inactive = higher.

Experiments:
Assay in all cases: growth of human tumour cells (NCI), 48 h
[1] = test system: MCF7
[2] = test system: LOX IMVI
[3] = test system: MDA-MB-231
[4] = test system: SK-MEL-5
[5] = test system: OVCAR-5
[6] = test system: NCI-H460
[7] = test system: SR
[8] = test system: RPMI-8226
[9] = test system: OVCAR-4
[10] = test system: HOP-92
[11] = test system: MDA-MB-435
[12] = test system: SK-MEL-2
[13] = test system: PC-3
[14] = test system: OVCAR-3
[15] = test system: OVCAR-8
[16] = test system: UACC-257
[17] = test system: HOP-62
[18] = test system: 786-0
[19] = test system: EKVX
[20] = test system: A549
[21] = test system: MOLT-4
[22] = test system: Hs-578T
[23] = test system: NCI-H23
[24] = test system: KM12
[25] = test system: CAKI-1
[26] = test system: SNB-75
[27] = test system: COLO 205
[28] = test system: NCI-H522
[29] = test system: SNB-19
[30] = test system: SF-295
[31] = test system: SW-620
[32] = test system: TK-10
[33] = test system: NCI-H226
[34] = test system: BT-549
[35] = test system: UACC-62
[36] = test system: T47D
[37] = test system: K562
[38] = test system: CCRF-CEM
[39] = test system: RXF 393
[40] = test system: ACHN
[41] = test system: A498
[42] = test system: MDA-N
[43] = test system: UO-31
[44] = test system: SK-OV-3
[45] = test system: SN12C
[46] = test system: HT-29
[47] = test system: HCT-15
[48] = test system: NCI/ADR-RES
[49] = test system: HCC 2998
[50] = test system: U-251
[51] = test system: SF-539
[52] = test system: Malme-3M
[53] = test system: HCT-116
[54] = test system: IGROV-1
[55] = test system: SF-268
[56] = test system: M14
[57] = test system: DU-145
[58] = test system: HL-60
[59] = test system: SK-MEL-28

O=c1[nH]nc(-c2ccccc2)n1-n1cnnc1
GI50 [1]: > 100 µM (inactive)
GI50 [2]: > 100 µM (inactive)
GI50 [3]: > 100 µM (inactive)
GI50 [4]: > 100 µM (inactive)
GI50 [5]: > 100 µM (inactive)
GI50 [6]: > 100 µM (inactive)
GI50 [7]: > 100 µM (inactive)
GI50 [8]: > 100 µM (inactive)
GI50 [9]: > 100 µM (inactive)
GI50 [10]: > 100 µM (inactive)
GI50 [11]: > 100 µM (inactive)
GI50 [12]: > 100 µM (inactive)
GI50 [13]: > 100 µM (inactive)
GI50 [14]: > 100 µM (inactive)
GI50 [15]: > 100 µM (inactive)
GI50 [16]: > 100 µM (inactive)
GI50 [17]: > 100 µM (inactive)
GI50 [18]: > 100 µM (inactive)
GI50 [19]: > 100 µM (inactive)
GI50 [20]: > 100 µM (inactive)
GI50 [21]: > 100 µM (inactive)
GI50 [22]: > 100 µM (inactive)
GI50 [23]: > 100 µM (inactive)
GI50 [24]: > 100 µM (inactive)
GI50 [25]: > 100 µM (inactive)
GI50 [26]: > 100 µM (inactive)
GI50 [27]: > 100 µM (inactive)
GI50 [28]: > 100 µM (inactive)
GI50 [29]: > 100 µM (inactive)
GI50 [30]: > 100 µM (inactive)
GI50 [31]: > 100 µM (inactive)
GI50 [32]: > 100 µM (inactive)
GI50 [33]: > 100 µM (inactive)
GI50 [34]: > 100 µM (inactive)
GI50 [35]: > 100 µM (inactive)
GI50 [36]: > 100 µM (inactive)
GI50 [37]: > 100 µM (inactive)
GI50 [38]: > 100 µM (inactive)
GI50 [39]: > 100 µM (inactive)
GI50 [40]: > 100 µM (inactive)
GI50 [41]: > 100 µM (inactive)
GI50 [42]: > 100 µM (inactive)
GI50 [43]: > 100 µM (inactive)
GI50 [44]: > 100 µM (inactive)
GI50 [45]: > 100 µM (inactive)
GI50 [46]: > 100 µM (inactive)
GI50 [47]: > 100 µM
GI50 [48]: > 100 µM (inactive)
GI50 [49]: > 100 µM (inactive)
GI50 [50]: > 100 µM (inactive)
GI50 [51]: > 100 µM (inactive)
GI50 [52]: > 100 µM (inactive)
GI50 [53]: > 100 µM (inactive)
GI50 [54]: > 100 µM (inactive)
GI50 [55]: > 100 µM (inactive)
GI50 [56]: > 100 µM (inactive)

NCCCNCCCNCCCN
GI50 [1]: > 100 µM (inactive)
GI50 [2]: > 100 µM (inactive)
GI50 [3]: > 100 µM (inactive)
GI50 [4]: > 100 µM (inactive)
GI50 [5]: > 100 µM (inactive)
GI50 [7]: 18.8 µM (inactive)
GI50 [8]: 16.4 µM (inactive)
GI50 [57]: > 100 µM (inactive)
GI50 [9]: > 100 µM (inactive)
GI50 [11]: > 100 µM (inactive)
GI50 [12]: > 100 µM (inactive)
GI50 [13]: > 100 µM (inactive)
GI50 [14]: > 100 µM (inactive)
GI50 [15]: > 100 µM (inactive)
GI50 [16]: > 100 µM (inactive)
GI50 [58]: > 100 µM (inactive)
GI50 [59]: > 100 µM (inactive)
GI50 [17]: > 100 µM (inactive)
GI50 [18]: > 100 µM (inactive)
GI50 [19]: > 100 µM (inactive)
GI50 [20]: > 100 µM (inactive)
GI50 [21]: 14.9 µM (inactive)
GI50 [23]: > 100 µM (inactive)
GI50 [24]: > 100 µM (inactive)
GI50 [25]: > 100 µM (inactive)
GI50 [27]: > 100 µM (inactive)
GI50 [28]: 54.3 µM (inactive)
GI50 [29]: > 100 µM (inactive)
GI50 [30]: > 100 µM (inactive)
GI50 [31]: > 100 µM (inactive)
GI50 [32]: > 100 µM (inactive)
GI50 [33]: > 100 µM (inactive)
GI50 [34]: > 100 µM (inactive)
GI50 [35]: > 100 µM (inactive)
GI50 [36]: 12.6 µM (inactive)
GI50 [37]: 25.2 µM (inactive)
GI50 [39]: > 100 µM (inactive)
GI50 [40]: > 100 µM (inactive)
GI50 [41]: > 100 µM (inactive)
GI50 [42]: > 100 µM (inactive)
GI50 [43]: > 100 µM (inactive)
GI50 [44]: > 100 µM (inactive)
GI50 [45]: > 100 µM (inactive)
GI50 [46]: > 100 µM (inactive)
GI50 [47]: > 100 µM
GI50 [48]: > 100 µM (inactive)
GI50 [49]: > 100 µM (inactive)
GI50 [50]: > 100 µM (inactive)
GI50 [52]: > 100 µM (inactive)
GI50 [53]: > 100 µM (inactive)
GI50 [54]: > 100 µM (inactive)
GI50 [55]: 3.48 µM (inactive)
GI50 [56]: > 100 µM (inactive)
